Marks after values point to notes of the source that are not given here.
Assays:
[1] = system: cytosolic phospholipase B (LPL/LPTA activities); assay: Radiometric assay, cytosolic LPL/LPTA activities; format: biochemical, Cryptococcus neoformans H99; settings: pH 4
Protocol: Fungal isolates and media. […] Isolate H99 was kindly supplied by Dr. Gary Cox (Duke University Medical Center, Durham, N.C., USA), and subcultured onto Sabouraud dextrose agar (SDA) at 30° C.
Cellular disruption to prepare membrane and cytosolic fractions. The cell pellet from the preparation of the supernatant, above, was also frozen at −70° C. After washing twice with imidazole buffer, it was disrupted in the presence of a protease inhibitor cocktail (P 8215 for fungal and yeast cells; 4-(2-aminoethyl)benzenesulfonyl fluoride hydrochloride, 100 mM, 1,10-phenanthroline, 500 mM, pepstatin A, 2.2 mM, E-64, 1.4 mM; Sigma) in a MiniBeadbeater-8 Cell Disrupter (MBB-8; Daintree Scientific, Tasmania, Australia) for three cycles of 1 min, alternating with a 1 min cooling period on ice. The homogenate was centrifuged at 14,000 g for 15 min to obtain the membrane (pellet) and the cytosolic (supernatant) fractions.
Secreted LPL and LPTA activities were measured simultaneously in a reaction mixture containing 1-[^14C]palmitoyl lyso-PC (25,000 dpm) and carrier lyso-PC (final concentration 200 μM) in assay buffer. The reaction time was […] with 1 μg of total protein and LPL activity was measured by the rate of loss of 1-[^14C]palmitoyl lyso-PC with release of radiolabelled fatty acids. LPTA activity was estimated from the rate of formation of radiolabelled PC.
All reactions were terminated by adding 0.5 mL of chloroform:methanol (2:1 v/v). The reaction products were extracted by the method as disclosed in Bligh, E. C. and W. J. Dyer. 1959 ‘A rapid method of total lipid extraction and purification.’ Can. J. Biochem. Physiol. 37:911-917, separated by TLC and quantified as previously described. In the case of PLC activity, the TLC plates were developed in petroleum ether (BP 60-80° C.): diethyl ether: acetic acid (90:15:1, v/v/v) instead of chloroform:methanol:water (65:25:4, v/v/v).
All experiments were carried out in duplicate or triplicate. The effects of pH on the various phospholipase activities were measured using 50 mM final concentration of imidazole-acetate buffer (pH range 3-5), MES buffer (pH range 6-8) and glycine buffer (pH 9-10). Controls for non-enzymic breakdown of substrates were included at all pH values. Cations, Triton X-100 and metal chelators were made up as stock solutions in water and diluted to the final concentration in the appropriate assay buffer.
Preparation of inhibitors and use in assays. The following compounds were tested (for structures, see FIG. 2): compound 1, 1,12-bis(tributylphosphonium)dodecane dibromide (Fluka AG, Buchs, Switzerland); compound 2, 1,10-bis(tributylammonium)-decane dibromide; compound 3, 1,12-bis(tributylammonium)do-decane dibromide (both synthesised in-house); compound 4, 1,10-bis(trimethylammonium)decane dibromide [“decamethonium”] (Sigma, St. Louis Mo., USA). All compounds were prepared as stock solutions of 700 μM in assay buffer containing 5 mM EDTA, which was then diluted serially with buffer to obtain solutions of 70, 7, 0.7 and 0.07 μM. In each assay, 45 μL of these solutions was used, and the final volume of 125 μL was made up of substrate, enzyme and buffer. The radiometric assay was carried out as above. Inhibition was calculated as the percent of substrates (DPPC or Lyso-PC) remaining in the case of PLB and LPL activities, or of DPPC produced, in the case of the LPTA activity. The amounts converted, or produced, in the inhibitor-free control were normalised to 100%, and the inhibition calculated against it. All assays were done in triplicate.
Under these conditions only PLB, LPL and LPTA activities (both secreted and cell-associated) were measured. Initially, compounds deemed to be potential inhibitors were assayed at 25 and 250 μM.

dermatophyte isolates = assay: Susceptibility of dermatophytes, results stated over all isolates; format: cell-based; settings: read-out: mean MICs across all the isolates
Protocol: Isolates were tested using the method described in the National Committee for Clinical Laboratory Standards (NCCLS) document M38-P for filamentous fungi, with dermatophyte specific modifications described by Fernández-Torres et al, Current topics in Medical Mycology, 14-19 Feb. 1999.
Five dermatophyte isolates were, namely; T. rubrum, T. mentagrophytes, T. tonsurans, M. canis and M. gypseum, all of which produce lipases and some, phospholipase. These isolates were tested by the broth microdilution method according to NCCLS document M38-P, for activity against selected antifungal agents. In addition, ten randomly selected isolates of T. tonsurans were also tested. All isolates were maintained on SDA at 28° C. Candida parapsilosis (ATCC 20019) was used as the reference control is organism. […]
Fungal cultures were subcultured onto Potato Dextrose Agar and grown at 28° C. for 7-10 days. […] Inoculum quantification was performed by plating 100 μl of the 1:1000 dilution of the adjusted inoculum on SDA plates, incubated at 28° C., and after 7 days of incubation, the colonies were counted.
Testing was based on NCCLS M38-P document for testing filamentous moulds. […] Plates were incubated at 28° C. for 7 days, and read at 3 days and 7 days of incubation. […]
Growth in microtitre trays were read by visual inspection by using an illuminated-reversed mirror. […]

| Compound | % Inhibition LPL, Cytosolic Enzyme ([1]; 2.5 μM) [%] | % Inhibition LPTA, Cytosolic Enzyme ([1]; 2.5 μM) [%] | % Inhibition LPL, Cytosolic Enzyme ([1]; 25 μM) [%] | % Inhibition LPTA, Cytosolic Enzyme ([1]; 25 μM) [%] | % Inhibition LPL, Cytosolic Enzyme ([1]; 250 μM) | % Inhibition LPTA, Cytosolic Enzyme ([1]; 250 μM) [%] | MIC (dermatophyte isolates) [µg/mL] |
| --- | --- | --- | --- | --- | --- | --- | --- |
| CCCC[P+](CCCC)(CCCC)CCCCCCCCCCCC[P+](CCCC)(CCCC)CCCC [Compound 1, 1,12-bis(tributylphosphonium)dodecane dibromide] | 0 | 0 | 0 | 0 | 12.7* % | 0 | – |
| CCCC[N+](CCCC)(CCCC)CCCCCCCCCCCC[N+](CCCC)(CCCC)CCCC [Compound 3, 1,12-bis(tributylammonium)do-decane dibromide] | – | – | – | – | – | – | 2.62 to 7.61 |
